Target: T1, hCES1A (Homo sapiens, UniProt P23141)
T1 sequence (P23141 18-567): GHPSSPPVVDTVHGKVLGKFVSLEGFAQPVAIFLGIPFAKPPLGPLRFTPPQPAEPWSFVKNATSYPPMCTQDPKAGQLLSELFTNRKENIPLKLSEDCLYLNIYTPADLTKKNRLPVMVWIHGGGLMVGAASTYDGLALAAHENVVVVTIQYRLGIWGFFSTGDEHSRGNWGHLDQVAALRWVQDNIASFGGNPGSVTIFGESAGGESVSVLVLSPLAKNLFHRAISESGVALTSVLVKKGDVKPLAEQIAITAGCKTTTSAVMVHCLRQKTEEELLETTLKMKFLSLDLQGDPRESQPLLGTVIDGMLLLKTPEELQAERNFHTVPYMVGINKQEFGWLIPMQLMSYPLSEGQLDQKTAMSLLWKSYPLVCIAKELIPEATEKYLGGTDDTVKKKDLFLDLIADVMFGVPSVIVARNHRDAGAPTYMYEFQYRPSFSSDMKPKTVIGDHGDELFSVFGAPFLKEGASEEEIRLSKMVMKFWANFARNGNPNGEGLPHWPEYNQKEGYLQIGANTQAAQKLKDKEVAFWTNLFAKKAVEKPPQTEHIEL
Assay: Co-crystallography with hCES1A
Type: binding
Conditions: 1:5 molar ratio
Description: Purified hCES1A incubated with F-3 and F-4 at 1:5 M ratio for 1 h at 18°C. Crystallisation screening was performed using commercially available kit sets using sitting drop vapor diffusion at 16°C. Both diffraction-quality crystals were obtained from the condition containing 14.4% peg8000 (w/v), 0.1M MES 6.4, 0.3M CaAc and 20% glycerol. Crystals were flash cooled in liquid nitrogen after cryoprotection in 25% glycerin. Date was collected on 02U1 at Shanghai Synchrotron Radiation Facility (SSRF). Data images were processed using program HKL2000. ([Otwinowski and Minor, 1997]). Crystal structures were solved using molecular replacement with the Phenix software suite using unbound hces1a (Protein Data Bank [PDB] accession number 1MX1 as the search model. Structure refinement was performed using Phenix. ([Adams et al., 2010]). The program COOT was used for manual rebuilding. ([Emsley and Cowtan, 2004]). Molecular graphics images were generated using CCP4MG. ([McNicholas et al., 2011]). […]
fluorogenic probe. 4 Briefly, the incubation mixtures (0.1 mL) contained Tris-HCl buffer, hPL solution (0.25 μg/mL, final concentration), porcine bile salt (0.1 mg/mL, final concentration) and each inhibitor (with different concentrations). […] The fluorescent signals of hydrolytic product were quantified by using the microplate reader (Spectra Max M4, Austria), with the wavelength of 600 nm and 660 nm for excitation and emission, respectively. […]
OPTS, a known fluorogenic probe, was used as the substrate to assess the residual activities of Notum in the presence of each tested compound. […] After preincubated at 37 °C for 1 min, OPTS was added to initiate the hydrolytic reaction and the multi-mode microplate reader (SpectraMax iD3, Molecular Devices, Austria) was used to analyze the florescence signals of the […]
The F-3, F-4, F-10-bound peptides was analysed using the nanoLC-MS/MS system, respectively.6 The purified hCES1A (150 μg, final content) was co-incubated with the small molecule inhibitor F-3/ F-4/ F-10 (100 μM, final concentration) at 4 °C and 25 °C, respectively, for 4h. […]

O=C(c1ccccc1)C(F)(F)F [F, 2,2,2-trifluoroacetophenone]
covalent binding mode at the catalytic triad (Ser221) in co-crystal: failed to result in similar covalent interactions
